Assay results published in US20110086870A1, “Combination Therapy” (AstraZeneca AB, priority 2003, published 2011).

Legend:
[1] = test system: human LS-174T colon tumour xenografts; test: Human LS-174T colon tumour xenografts in Nude mice, test (a) 5-FU+ZD6474; format: in vivo; settings: for Inhibition of Control Tumour Growth at day 13 / Regressions: number of tumours which had regressed by ≧10% in volume by day 13, compared with pre-treatment volume on day 0: ZD6474 25 mg/kg/day p.o. d 0-13, 5-FU 75 mg/kg i.v. d 0 and 7; for Inhibition of Control Tumour Growth at day 13: versus vehicle control; for Regressions: number of tumours which had regressed by ≧10% in volume by day 13, compared with pre-treatment volume on day 0: regressed tumours/tumours in group; for tumour regressions: share of tumours regressed by day 13, same doses as the table
Description: 10^7 LS-174T tumour cells in 0.2 ml of serum free Roswell Park Memorial Institute (RPMI)-1640 medium were injected subcutaneously (s.c.) into the flanks of 10 athymic (nu/nu genotype) mice. When tumour sizes reached 700-1000 mm^3 (3-4 weeks), tumours were surgically excised and smaller tumour fragments thereof (20-30 mg) were implanted s.c. in the right flank of 120 Nude mice. When tumours reached a volume of 100 to 200 mm^3 (14-16 days after the graft), mice were randomized into groups (13-15 per group) and treatment started.
• The control group (Group 1) received a daily oral (p.o.) administration of ZD6474 vehicle for 14 consecutive days (day 0-13) combined with two intravenous (i.v.) injections of saline (the vehicle for 5-FU) on day 0 and 7. • For Group 2, the treatments consisted of a daily p.o. administration of ZD6474 alone at 25 mg/kg/administration for 14 consecutive days (day 0-13) combined with two i.v. injections of saline (the vehicle for 5-FU) on day 0 and 7. ZD6474 was prepared as a suspension in 1% polysorbate 80 (i.e. a 1% (v/v) solution of polyoxyethylene (20) sorbitan mono-oleate in deionised water). • Group 3 received two i.v. injections of 5-FU at 75 mg/kg/injection, on day 0 and 7, combined with a daily p.o. administration of ZD6474 vehicle for 14 consecutive days (day 0-13). • Group 4 received daily p.o. administration of ZD6474 at 25 mg/kg/administration for 14 consecutive days (day 0-13) combined with two i.v. injections of 5-FU at 75 mg/kg/injection, on day 0 and 7.
The administration volume of ZD6474 was 10.0 ml/kg (200 μl for a 20 g mouse). The injection volume of 5-FU was 10.0 ml/kg (200 μl for a 20 g mouse).
Tumor volumes (mm^3) were assessed at least twice weekly by bilateral Vernier caliper measurement and, taking length to be the longest diameter across the tumor and width the corresponding perpendicular, calculated using the formula (π/6)×(length×width)×the square root of (length×width). Growth inhibition from the start of treatment was assessed by comparison of the differences in tumor volume between control and treated groups. For all mice, the study was stopped when tumours reached 2,000 mm^3 For all mice, the tumours were excised and weights recorded upon termination of the study.

[2] = test system: human LS-174T colon tumour xenografts; test: Human LS-174T colon tumour xenografts in Nude mice, test (b) CPT-11+ZD6474; format: in vivo; settings: ZD6474 25 mg/kg/day p.o. d 0-20, CPT-11 20 mg/kg i.v. d 0, 7 and 14
Description: • The control group (Group 1) received a daily oral (p.o.) administration of ZD6474 vehicle for 14 consecutive days (day 0-13) combined with two intravenous (i.v.) injections of saline (the vehicle for CPT-11) on day 0 and 7. […]
Tumor volumes (mm^3) were assessed at least twice weekly by bilateral Vernier caliper measurement and, taking length to be the longest diameter across the tumor and width the corresponding perpendicular, calculated using the formula (π/6)×(length×width)×square root of (length×width). Growth inhibition from the start of treatment was assessed by comparison of the differences in tumor volume between control and treated groups. For all mice, the study was stopped when tumours reached 2,000 mm^3 For all mice, the tumours were excised and weights recorded upon termination of the study.

Row | Structure (SMILES) | Inhibition of Control Tumour Growth at day 13 [1] | Regressions: number of tumours which had regressed by ≧10% in volume by day 13, compared with pre-treatment volume on day 0 [1] | tumour regressions [1] | mean tumour volume on day 20 [2]
1 | COc1cc2c(Nc3ccc(Br)cc3F)ncnc2cc1OCC1CCN(C)CC1 [ZD6474, 4-(4-bromo-2-fluoroanilino)-6-methoxy-7-(1-methylpiperidin-4-ylmethoxy)quinazoline] | 80% | 5/15 | 33% | 475 mm^3
2 | O=c1[nH]cc(F)c(=O)[nH]1 [5-FU, 5-fluorouracil, reference compound] | 68% | 6/15 | 40% | 
